Laboratory results as given in ChEMBL document CHEMBL3046161, “Synthesis of potential antitubercular and antimicrobial s-triazine-based scaffolds via Suzuki cross-coupling reaction” (2013).
Values after ≈ are worked out from the molar mass of the structure shown.

Legend:
Format in all cases: functional
Salmonella typhi [1] = assay: Antibacterial activity against Salmonella enterica subsp. enterica serovar Typhi MTCC 733 assessed as growth inhibition at 3.12 to 50 ug/mL after 24 hr by agar disk diffusion method
Klebsiella pneumoniae [2] = assay: Antibacterial activity against Klebsiella pneumoniae MTCC 109 assessed as growth inhibition at 3.12 to 50 ug/mL after 24 hr by agar disk diffusion method
Klebsiella pneumoniae [3] = assay: Antibacterial activity against Klebsiella pneumoniae MTCC 109 assessed as growth inhibition after 24 hr by agar streak dilution method; details: MTCC 109, 24 h
Salmonella typhi [4] = assay: Antibacterial activity against Salmonella enterica subsp. enterica serovar Typhi MTCC 733 assessed as growth inhibition after 24 hr by agar streak dilution method; details: MTCC 733, 24 h
Pseudomonas aeruginosa [5] = assay: Antibacterial activity against Pseudomonas aeruginosa MTCC 741 assessed as growth inhibition after 24 hr by agar streak dilution method; details: MTCC 741, 24 h
Escherichia coli [6] = assay: Antibacterial activity against Escherichia coli MTCC 739 assessed as growth inhibition after 24 hr by agar streak dilution method; details: MTCC 739, 24 h
Bacillus cereus [7] = assay: Antibacterial activity against Bacillus cereus MTCC 430 assessed as growth inhibition after 24 hr by agar streak dilution method; details: MTCC 430, 24 h
Staphylococcus aureus [8] = assay: Antibacterial activity against Staphylococcus aureus MTCC 96 assessed as growth inhibition after 24 hr by agar streak dilution method; details: MTCC 96, 24 h
[9] = tested on: Mycobacterium tuberculosis; assay: Antimycobacterial activity against Mycobacterium tuberculosis H37Rv assessed as growth inhibition at MIC after 12 to 28 days by Lowenstein and Jensen agar dilution method
[10] = tested on: Mycobacterium tuberculosis; assay: Antimycobacterial activity against Mycobacterium tuberculosis H37Rv assessed as growth inhibition after 12 to 28 days by Lowenstein and Jensen agar dilution method
[11] = tested on: Mycobacterium tuberculosis; assay: Antimycobacterial activity against Mycobacterium tuberculosis H37Rv assessed as growth inhibition at MIC measured within 10 days by BACTEC MGIT method
[12] = tested on: Mycobacterium tuberculosis; assay: Antimycobacterial activity against Mycobacterium tuberculosis H37Rv assessed as growth inhibition measured within 10 days by BACTEC MGIT method; details: 240 h
Candida albicans [13] = assay: Antifungal activity against Candida albicans MTCC 183 assessed as growth inhibition at 3.12 to 50 ug/mL after 24 hr by agar disk diffusion method
Aspergillus clavatus [14] = assay: Antifungal activity against Aspergillus clavatus MTCC 1323 assessed as growth inhibition at 3.12 to 50 ug/mL after 24 hr by agar disk diffusion method
Aspergillus fumigatus [15] = assay: Antifungal activity against Aspergillus fumigatus MTCC 343 assessed as growth inhibition at 3.12 to 50 ug/mL after 24 hr by agar disk diffusion method
Aspergillus niger [16] = assay: Antifungal activity against Aspergillus niger MTCC 282 assessed as growth inhibition at 3.12 to 50 ug/mL after 24 hr by agar disk diffusion method
Candida albicans [17] = assay: Antifungal activity against Candida albicans MTCC 183 assessed as growth inhibition after 48 hr by agar streak dilution method; details: MTCC 183, 48 h
Aspergillus clavatus [18] = assay: Antifungal activity against Aspergillus clavatus MTCC 1323 assessed as growth inhibition after 48 hr by agar streak dilution method; details: MTCC 1323, 48 h
Aspergillus fumigatus [19] = assay: Antifungal activity against Aspergillus fumigatus MTCC 343 assessed as growth inhibition after 48 hr by agar streak dilution method; details: MTCC 343, 48 h
Aspergillus niger [20] = assay: Antifungal activity against Aspergillus niger MTCC 282 assessed as growth inhibition after 48 hr by agar streak dilution method; details: MTCC 282, 48 h
Shigella flexneri [21] = assay: Antibacterial activity against Shigella flexneri MTCC 1457 assessed as growth inhibition at 3.12 to 50 ug/mL after 24 hr by agar disk diffusion method
Proteus vulgaris [22] = assay: Antibacterial activity against Proteus vulgaris MTCC 1771 assessed as growth inhibition at 3.12 to 50 ug/mL after 24 hr by agar disk diffusion method
Pseudomonas aeruginosa [23] = assay: Antibacterial activity against Pseudomonas aeruginosa MTCC 741 assessed as growth inhibition at 3.12 to 50 ug/mL after 24 hr by agar disk diffusion method
Escherichia coli [24] = assay: Antibacterial activity against Escherichia coli MTCC 739 assessed as growth inhibition at 3.12 to 50 ug/mL after 24 hr by agar disk diffusion method
Bacillus cereus [25] = assay: Antibacterial activity against Bacillus cereus MTCC 430 assessed as growth inhibition at 3.12 to 50 ug/mL after 24 hr by agar disk diffusion method
Staphylococcus aureus [26] = assay: Antibacterial activity against Staphylococcus aureus MTCC 96 assessed as growth inhibition at 3.12 to 50 ug/mL after 24 hr by agar disk diffusion method
Shigella flexneri [27] = assay: Antibacterial activity against Shigella flexneri MTCC 1457 assessed as growth inhibition after 24 hr by agar streak dilution method; details: MTCC 1457, 24 h
Proteus vulgaris [28] = assay: Antibacterial activity against Proteus vulgaris MTCC 1771 assessed as growth inhibition after 24 hr by agar streak dilution method; details: MTCC 1771, 24 h
Candida albicans [29] = assay: Antifungal activity against Candida albicans MTCC 183 assessed as growth inhibition at 100 ug/disk after 24 hr by agar disk diffusion method; details: MTCC 183, 24 h, read-out: IZ
Aspergillus clavatus [30] = assay: Antifungal activity against Aspergillus clavatus MTCC 1323 assessed as growth inhibition at 100 ug/disk after 24 hr by agar disk diffusion method; details: MTCC 1323, 24 h, read-out: IZ
Aspergillus fumigatus [31] = assay: Antifungal activity against Aspergillus fumigatus MTCC 343 assessed as growth inhibition at 100 ug/disk after 24 hr by agar disk diffusion method; details: MTCC 343, 24 h, read-out: IZ
Aspergillus niger [32] = assay: Antifungal activity against Aspergillus niger MTCC 282 assessed as growth inhibition at 100 ug/disk after 24 hr by agar disk diffusion method; details: MTCC 282, 24 h, read-out: IZ

In the case of COc1ccc(NC(=O)CNc2ccc(-c3nc(N4CC(C)CC(C)C4)nc(N4CC(C)CC(C)C4)n3)cc2)cc1 (centres undefined), the “inhibition zone (IZ)” value (Salmonella typhi [1]) is reported as 20 mm, the “inhibition zone (IZ)” value (Klebsiella pneumoniae [2]) is reported as under 10 mm and the MIC (Klebsiella pneumoniae [3]) is reported as 50 µg/mL (≈ 89.6 µM). For the same compound, the MIC (Salmonella typhi [4]) was 25 µg/mL (≈ 44.8 µM), the MIC (Pseudomonas aeruginosa [5]) was 50 µg/mL (≈ 89.6 µM) and the MIC (Escherichia coli [6]) was 50 µg/mL (≈ 89.6 µM). The MIC (Bacillus cereus [7]) was 25 µg/mL (≈ 44.8 µM), the MIC (Staphylococcus aureus [8]) was 50 µg/mL (≈ 89.6 µM) and the “growth inhibition (GI)” value [9] was 99%. For the same compound, the MIC [10] was 6.25 µg/mL (≈ 11.2 µM), the “growth inhibition (GI)” value [11] was 99% and the MIC [12] was 6.25 µg/mL (≈ 11.2 µM). For the same compound, the “inhibition zone (IZ)” value (Candida albicans [13]) was 21 mm, the “inhibition zone (IZ)” value (Aspergillus clavatus [14]) was under 10 mm and the “inhibition zone (IZ)” value (Aspergillus fumigatus [15]) was under 10 mm. The “inhibition zone (IZ)” value (Aspergillus niger [16]) was 14 mm, the MIC (Candida albicans [17]) was 25 µg/mL (≈ 44.8 µM) and the MIC (Aspergillus clavatus [18]) was over 50 µg/mL. For the same compound, the MIC (Aspergillus fumigatus [19]) was over 50 µg/mL, the MIC (Aspergillus niger [20]) was 50 µg/mL (≈ 89.6 µM) and the “inhibition zone (IZ)” value (Shigella flexneri [21]) was 19 mm. For the same compound, the “inhibition zone (IZ)” value (Proteus vulgaris [22]) was 22 mm, the “inhibition zone (IZ)” value (Pseudomonas aeruginosa [23]) was 22 mm and the “inhibition zone (IZ)” value (Escherichia coli [24]) was 19 mm. The “inhibition zone (IZ)” value (Bacillus cereus [25]) was 23 mm, the “inhibition zone (IZ)” value (Staphylococcus aureus [26]) was 16 mm and the MIC (Shigella flexneri [27]) was 50 µg/mL (≈ 89.6 µM). It also gave an MIC (Proteus vulgaris [28]) of 25 µg/mL (≈ 44.8 µM).

With CC[C@@H](CO)NCCN[C@@H](CC)CO [ETHAMBUTOL] the “growth inhibition (GI)” value [11] was 99% and the MIC [12] was 3.12 µg/mL (≈ 15.3 µM).

NNC(=O)c1ccncc1 [ISONIAZID] was tested, and the “growth inhibition (GI)” value [11] was 99% and the MIC [12] was 0.2 µg/mL (≈ 1.46 µM).

Work on CC(=O)N1CCN(c2ccc(OCC3COC(Cn4ccnc4)(c4ccc(Cl)cc4Cl)O3)cc2)CC1 (centres undefined) [KETOCONAZOLE] yielded a zone of inhibition at 100 µg/disc (Candida albicans [29]) of 33 mm, a zone of inhibition at 100 µg/disc (Aspergillus clavatus [30]) of 31 mm and a zone of inhibition at 100 µg/disc (Aspergillus fumigatus [31]) of 29 mm. The zone of inhibition at 100 µg/disc (Aspergillus niger [32]) was 30 mm, the MIC (Candida albicans [17]) was 1.56 µg/mL (≈ 2.94 µM) and the MIC (Aspergillus clavatus [18]) was 0.78 µg/mL (≈ 1.47 µM). For the same compound, the MIC (Aspergillus fumigatus [19]) was 0.78 µg/mL (≈ 1.47 µM) and the MIC (Aspergillus niger [20]) was 1.56 µg/mL (≈ 2.94 µM).

With NC(=O)c1cnccn1 [PYRAZINAMIDE] the “growth inhibition (GI)” value [11] was 99% and the MIC [12] was 6.25 µg/mL (≈ 50.8 µM).

CO[C@H]1/C=C/O[C@@]2(C)Oc3c(C)c(O)c4c(O)c(c(/C=N/N5CCN(C)CC5)c(O)c4c3C2=O)NC(=O)/C(C)=C\C=C\[C@H](C)[C@H](O)[C@@H](C)[C@@H](O)[C@@H](C)[C@H](OC(C)=O)[C@@H]1C [RIFAMPIN] was tested, and the “growth inhibition (GI)” value [11] was 99% and the MIC [12] was 0.25 µg/mL (≈ 0.304 µM).
